Values joined by “and” are separate entries in the source; they are usually repeats but may differ in a detail not shown here. Identical values can stand only once. Like-named read-outs stand apart in the source and are kept apart here. Residues, ends and D or L forms follow the SMILES beside them. *: point of attachment. Myristoyl = CCCCCCCCCCCCCC(=O)*
How the values were obtained:
human neutrophils = test: Human neutrophil chemotactic migration assay; type: cell-based; details: test peptide 50 μM; for Neutrophil Migration (% Inhibition), LTB4: LTB4 100 nM; for Neutrophil Migration (% Inhibition), LTB4 / Neutrophil Migration (% Inhibition), fMLP: 0 = inactive; for Neutrophil Migration (% Inhibition), PAF: PAF 100 nM; for Neutrophil Migration (% Inhibition), fMLP: fMLP 100 nM
Experimental: Human neutrophils were isolated from heparinized whole blood collected from healthy adult donors via cephalic venipuncture by a slightly modified method as described by Akasaki et al., 1999 (Akasaki T, Koga H, and Sumimoto H., Phosphoinositide 3-kinase-dependent and -independent activation of the small GTPase Rac2 in human neutrophils, J. Biol. Chem. 274:18055-18059, 1999). The blood was mixed with dextran (final concentration 1.4% dextran) and then allowed to settle for 60 minutes, after which time the leukocyte rich plasma was collected and layered onto 5 mL of Ficoll-Paque PLUS in 15 ml, conical tubes. The plasma was centrifuged at 1800 rpm for 20 minutes at room temperature. The residual erythrocytes were lysed utilizing a hypotonic saline and the remaining neutrophils were re-suspended in Hank's balanced salt solution containing 20 mM HEPES and 8.9 mM sodium bicarbonate without calcium or magnesium (HBSS), yielding neutrophils that were greater than 98% pure and greater than 99% viable.
Neutrophil migration assay was performed according to the method described by Frevert C W, Wong V A, Goodman R B, Goodwin R, and Martin T R., Rapid fluorescence-based measurement of neutrophil migration in vitro, J. Immunol. Methods, 213:41-52, 1998. Human neutrophils were labeled with the fluorescent dye calcein for 30 minutes at room temperature. Cells were then washed and resuspended in a migration buffer containing HBSS with 2% FCS. Cells were treated with buffer alone or with the indicated test peptide (50 μM) for 30 minutes at 37° C. Treated cells (1×10^4 cells) were then placed on the upper side of a ChemoTx® chemotaxis plate (Neuroprobe, Gaithersburg, Md.) membrane (2 μm pore size). Lower wells of the plate were filled with migration buffer alone or with buffer containing fMLP (100 nM), LTB4 (100 nM), or PAF (100 nM). Wells containing 1×10^4 labeled cells were used as standards to calculate migration percentage. Cells were allowed to migrate for 1 hour at 37° C. After incubation, cells on the top of the filter were washed away with PBS. Followed by this, 0.5 mM EDTA was added to the top of the filter for 5 min to detach adherent cells and the membrane was again washed. The plate was then centrifuged at 1000 rpm for 1 min. The filter was removed and the fluorescence was measured in the lower wells (485 nm excitation, 530 nm emission wavelength) using an fMax fluorescence plate reader (Molecular Devices, Sunnyvale, Calif.). Percent migration was determined by dividing the fluorescence of each well by the fluorescence of the standard wells containing 1×10^4 labeled cells. A lesser number of migrated neutrophils in the bottom compartment is indicative of the test peptide being an inhibitor of inflammation.

NHBE cells = test: PMA+8-Br-cGMP-induced mucin secretion from NHBE cells (ELISA); type: cell-based, human; details: for Mucin secretion level relative to media control: pre- and co-incubation with 100 nM PMA+1 μM 8-Br-cGMP (Results-M-1A/M-3A)
Experimental: Peptide Blocking Studies—NHBE cells were preincubated with either the MANS or the RNS peptide (1-100 μM) for 15 min, and then PMA (100 nM)+8-Br-cGMP (1 μM) or UTP (100 μM) was added, and cells were incubated for an additional 15 min or 2 h. respectively. Mucin secretion was measured by ELISA and experimental results are designated as Results-I-2B-1 and Results-I-2B-2, as follows. […]
Measurement of Mucin Secretion by ELISA—Before collection of “base line” and “test” mucin samples, the accumulated mucus at the apical surface of the cells was removed by washing with phosphate-buffered saline, pH 7.2. To collect the base-line secretion, cells were incubated with medium alone, and secreted mucin in the apical medium was collected and reserved. Cells were rested for 24 h and then exposed to medium containing the selected stimulatory and/or inhibitory reagents (or appropriate controls), after which secreted mucin was collected and reserved as the test sample. Incubation times for the base line and the test were the same but varied depending on the test reagent utilized. Both base line and test secretions were analyzed by ELISA using an antibody capture method as known in the art. See, e.g., Harlow et al., Antibodies: A Laboratory Manual, pp. 570-573, Cold Spring Harbor Laboratory, Cold Spring Harbor, N.Y. (1988). The primary antibody for this assay was 17Q2 (Babco, Richmond, Calif.), a monoclonal antibody that reacts specifically with a carbohydrate epitope on human airway mucins. The ratio of test/base-line mucin, which is similar to a “secretory index”, was used to quantify mucin secretion, allowing each culture dish to serve as its own control and thus, minimizing deviation caused by variability among culture wells. Wright et al., Am. J. Physiol. 271, L854-L861 (1996). Levels of mucin secretion were reported as percentage of the medium control.
MARCKS-related Peptides—Both the myristoylated N-terminal sequence (MANS) and the random N-terminal sequence (RNS) peptides were synthesized at Genemed Synthesis, Inc. (San Francisco, Calif.), then purified by high pressure liquid chromatography (>95% pure), and confirmed by mass spectroscopy with each showing one single peak with an appropriate molecular mass. The MANS peptide consisted of sequence identical to the first 24 amino acids of MARCKS, i.e. the myristoylated N-terminal region that mediates MARCKS insertion into membranes, MA-[…] (SEQ ID NO: 1) (where MA=N-terminal myristate chain). The corresponding control peptide (RNS) contained the same amino acid composition as the MANS but arranged in random order, MA-[…] (SEQ ID NO: 26). The presence of the hydrophobic myristate moiety in these synthetic peptides enhances their permeability to the plasma membranes, enabling the peptides to be taken up readily by cells. To determine the effects of these peptides on mucin secretion, cells were preincubated with the peptides for 15 min prior to addition of secretagogues, and mucin secretion was then measured by ELISA.
Antisense Oligonucleotides—MARCKS antisense oligonucleotide and its corresponding control oligonucleotide were synthesized at Biognostik GmbH (Gottingen, Germany). NHBE cells were treated with 5 μM antisense or control oligonucleotide apically for 3 days (in the presence of 2 μg/ml lipofectin for the first 24 h). Cells were then incubated with secretagogues, and mucin secretion was measured by ELISA. Total RNA and protein were isolated from treated cells. MARCKS mRNA was assessed by Northern hybridization according to conventional procedures using human MARCKS cDNA as a probe. MARCKS protein level was determined by Western blot using purified anti-MARCKS IgG1 (clone 2F12) as the primary detection antibody.
The effect on mucus secretion of a myristoylated peptide containing the first 24 amino acids of the human MARCKS protein (MANS; myristoylated N-terminal sequence; SEQ ID NO: ) was tested. Cultured normal human bronchial epithelial cells as described above were used. […]

[1] = peptide 1 μM, 15 min preincubation, then PMA 100 nM+8-Br-cGMP 1 μM 15 min (Results-I-2B-1)
[2] = peptide 10 μM, 15 min preincubation, then PMA 100 nM+8-Br-cGMP 1 μM 15 min (Results-I-2B-1)
[3] = peptide 100 μM, 15 min preincubation, then PMA 100 nM+8-Br-cGMP 1 μM 15 min (Results-I-2B-1)

In the case of `CCCCCCCCCCCCCC(=O)NCC(=O)N[C@@H](C)C(=O)N[C@@H](CCC(N)=O)C(=O)N[C@@H](Cc1ccccc1)C(=O)N[C@@H](CO)C(=O)N[C@@H](CCCCN)C(=O)N[C@H](C(=O)N[C@@H](C)C(=O)N[C@@H](C)C(=O)N[C@@H](CCCCN)C(=O)NCC(=O)N[C@@H](CCC(=O)O)C(=O)O)[C@@H](C)O` [SEQ ID NO: 13, N-myristoyl-GAQFSKTAAKGE] (Myristoyl-GAQFSKTAAKGE-OH; C-terminus assumed), the “Neutrophil Migration (% Inhibition), LTB4” value (human neutrophils) is reported as 82.7%, the “Neutrophil Migration (% Inhibition), PAF” value (human neutrophils) is reported as 85.7% and the “Neutrophil Migration (% Inhibition), fMLP” value (human neutrophils) is reported as 81.8%.

With `CCCCCCCCCCCCCC(=O)NCC(=O)N[C@@H](C)C(=O)N[C@@H](CCC(N)=O)C(=O)N[C@@H](Cc1ccccc1)C(=O)N[C@@H](CO)C(=O)N[C@@H](CCCCN)C(=O)N[C@H](C(=O)N[C@@H](C)C(=O)N[C@@H](C)C(=O)N[C@@H](CCCCN)C(=O)NCC(=O)N[C@@H](CCC(=O)O)C(=O)N[C@@H](C)C(=O)N[C@@H](C)C(=O)N[C@@H](C)C(=O)N[C@@H](CCC(=O)O)C(=O)N[C@@H](CCCNC(=N)N)C(=O)N1CCC[C@H]1C(=O)NCC(=O)N[C@@H](CCC(=O)O)C(=O)N[C@@H](C)C(=O)N[C@@H](C)C(=O)N[C@H](C(=O)N[C@@H](C)C(=O)O)C(C)C)[C@@H](C)O` [MANS peptide] (Myristoyl-GAQFSKTAAKGEAAAERPGEAAVA-OH; C-terminus assumed) the “Relative mucin secretion level referenced to stimulated level (M-3A-3) as 100%” value (NHBE cells; peptide 1 μM) was 90%, the “Mucin secretion as % of control” value (NHBE cells; [1]) was 188% and the “Mucin secretion level relative to media control” value (NHBE cells; peptide 1 μM) was 171%. The “Relative mucin secretion level referenced to stimulated level (M-3A-3) as 100%” value (NHBE cells; peptide 10 μM) was 61%, the “Mucin secretion as % of control” value (NHBE cells; [2]) was 129% and the “Mucin secretion level relative to media control” value (NHBE cells; peptide 10 μM) was 117%. The “Relative mucin secretion level referenced to stimulated level (M-3A-3) as 100%” value (NHBE cells; peptide 100 μM) was 16%, the “Mucin secretion as % of control” value (NHBE cells; [3]) was 35% and the “Mucin secretion level relative to media control” value (NHBE cells; peptide 100 μM) was 29% and 30%. The “Neutrophil Migration (% Inhibition), LTB4” value (human neutrophils) was 91.8%, the “Neutrophil Migration (% Inhibition), PAF” value (human neutrophils) was 86.4% and the “Neutrophil Migration (% Inhibition), fMLP” value (human neutrophils) was 90.0%.

For `CCCCCCCCCCCCCC(=O)NCC(=O)N[C@H](C(=O)N[C@@H](C)C(=O)N1CCC[C@H]1C(=O)N[C@@H](C)C(=O)N[C@@H](C)C(=O)N[C@@H](CCC(=O)O)C(=O)NCC(=O)N[C@@H](C)C(=O)NCC(=O)N[C@@H](C)C(=O)N[C@@H](CCC(=O)O)C(=O)N[C@H](C(=O)N[C@@H](CCCCN)C(=O)N[C@@H](CCCNC(=N)N)C(=O)N[C@@H](C)C(=O)N[C@@H](CO)C(=O)N[C@@H](C)C(=O)N[C@@H](CCC(=O)O)C(=O)N[C@@H](C)C(=O)N[C@@H](CCCCN)C(=O)N[C@@H](CCC(N)=O)C(=O)N[C@@H](C)C(=O)N[C@@H](Cc1ccccc1)C(=O)O)C(C)C)[C@@H](C)O` [RNS peptide, reference compound] (Myristoyl-GTAPAAEGAGAEVKRASAEAKQAF-OH; C-terminus assumed), the “Mucin secretion as % of control” value (NHBE cells; [1]) was 216%, the “Mucin secretion as % of control” value (NHBE cells; [2]) was 208% and the “Mucin secretion as % of control” value (NHBE cells; [3]) was 206%. For the same compound, the “Neutrophil Migration (% Inhibition), LTB4” value (human neutrophils) was 0%, the “Neutrophil Migration (% Inhibition), PAF” value (human neutrophils) was 62.1% and the “Neutrophil Migration (% Inhibition), fMLP” value (human neutrophils) was 0.7%.

`C[C@@](O)(/C=C/[C@H]1CC=CC(=O)O1)[C@@H](C[C@@H](O)\C=C/C=C\C=C\CO)OP(=O)(O)O` [fostriecin] was tested, and the activity at 0.001 µM (NHBE cells; Homo sapiens, NHBE, inhibitor 1 nM, 15 min preincubation, then PMA 100 nM+8-Br-cGMP 1 μM 15 min, read-out: Mucin secretion as % of control) was 198%, the activity at 0.01 µM (NHBE cells; Homo sapiens, NHBE, inhibitor 10 nM, 15 min preincubation, then PMA 100 nM+8-Br-cGMP 1 μM 15 min, read-out: Mucin secretion as % of control) was 182% and the activity at 0.1 µM (NHBE cells; Homo sapiens, NHBE, inhibitor 100 nM, 15 min preincubation, then PMA 100 nM+8-Br-cGMP 1 μM 15 min, read-out: Mucin secretion as % of control) was 170%. It also gave an activity at 0.5 µM (NHBE cells; Homo sapiens, NHBE, inhibitor 500 nM, 15 min preincubation, then PMA 100 nM+8-Br-cGMP 1 μM 15 min, read-out: Mucin secretion as % of control) of 134%.

TNF-α was tested, and the “Mucin secretion level, % of control” value (NHBE cells; TNF-α 10 ng/ml 4 h, then PMA 100 nM+8-Br-cGMP 1 μM 15 min) was 255%.

For `CCCCCCCCCCCCCC(=O)NCC(=O)N[C@@H](C)C(=O)N[C@@H](CCC(N)=O)C(=O)N[C@@H](Cc1ccccc1)C(=O)N[C@@H](CO)C(=O)N[C@@H](CCCCN)C(=O)N[C@H](C(=O)N[C@@H](C)C(=O)N[C@@H](C)C(=O)N[C@@H](CCCCN)C(=O)O)[C@@H](C)O` [SEQ ID NO: 15, N-myristoyl-GAQFSKTAAK] (Myristoyl-GAQFSKTAAK-OH; C-terminus assumed), the “Neutrophil Migration (% Inhibition), LTB4” value (human neutrophils) was 85.5%, the “Neutrophil Migration (% Inhibition), PAF” value (human neutrophils) was 87.2% and the “Neutrophil Migration (% Inhibition), fMLP” value (human neutrophils) was 88.6%.

For `C=C1[C@@H](O)[C@@H]2O[C@]3(CC[C@H](/C=C/[C@@H](C)[C@@H]4CC(C)=C[C@@]5(O[C@H](C[C@@](C)(O)C(=O)O)CC[C@H]5O)O4)O3)CC[C@H]2O[C@@H]1[C@@H](O)C[C@H](C)[C@H]1O[C@@]2(CCCCO2)CC[C@H]1C` [okadaic acid], the activity at 0.5 µM (NHBE cells; Homo sapiens, NHBE, read-out: Mucin secretion as % of control, inhibitor 500 nM, 15 min preincubation, then PMA 100 nM+8-Br-cGMP 1 μM 15 min) was 157%, the “Reduction in mucin secretion level from PMA+8-Br-cGMP-stimulated level” value (NHBE cells; inhibitor 500 nM) was 27% and the “Mucin secretion as % of control” value (NHBE cells; inhibitor 500 nM, 15 min preincubation, then PMA 100 nM+8-Br-cGMP 1 μM 15 min) was 155%.
